This assay concerns the target Mitogen-activated protein kinase kinase kinase 14 (Homo sapiens, UniProt Q99558). The experiment in a line: Inhibition of auto-phosphorylation of recombinant human NF-kappaB-inducing kinase (NIK/MAP3K14) activity (AlphaScreen). The procedure:
All compounds tested were dissolved in dimethyl sulfoxide (DMSO) and further dilutions were made in assay buffer. The final DMSO concentration was 0.7% (v/v) in assays. […] The assays were carried out in 384 well Proxiplates (Perkin Elmer).

Our source for the IC50 values is BindingDB's records for patent US20240199605 (Janssen Pharmaceutica, 2024).

Chain of Mitogen-activated protein kinase kinase kinase 14 (Q99558 whole entry): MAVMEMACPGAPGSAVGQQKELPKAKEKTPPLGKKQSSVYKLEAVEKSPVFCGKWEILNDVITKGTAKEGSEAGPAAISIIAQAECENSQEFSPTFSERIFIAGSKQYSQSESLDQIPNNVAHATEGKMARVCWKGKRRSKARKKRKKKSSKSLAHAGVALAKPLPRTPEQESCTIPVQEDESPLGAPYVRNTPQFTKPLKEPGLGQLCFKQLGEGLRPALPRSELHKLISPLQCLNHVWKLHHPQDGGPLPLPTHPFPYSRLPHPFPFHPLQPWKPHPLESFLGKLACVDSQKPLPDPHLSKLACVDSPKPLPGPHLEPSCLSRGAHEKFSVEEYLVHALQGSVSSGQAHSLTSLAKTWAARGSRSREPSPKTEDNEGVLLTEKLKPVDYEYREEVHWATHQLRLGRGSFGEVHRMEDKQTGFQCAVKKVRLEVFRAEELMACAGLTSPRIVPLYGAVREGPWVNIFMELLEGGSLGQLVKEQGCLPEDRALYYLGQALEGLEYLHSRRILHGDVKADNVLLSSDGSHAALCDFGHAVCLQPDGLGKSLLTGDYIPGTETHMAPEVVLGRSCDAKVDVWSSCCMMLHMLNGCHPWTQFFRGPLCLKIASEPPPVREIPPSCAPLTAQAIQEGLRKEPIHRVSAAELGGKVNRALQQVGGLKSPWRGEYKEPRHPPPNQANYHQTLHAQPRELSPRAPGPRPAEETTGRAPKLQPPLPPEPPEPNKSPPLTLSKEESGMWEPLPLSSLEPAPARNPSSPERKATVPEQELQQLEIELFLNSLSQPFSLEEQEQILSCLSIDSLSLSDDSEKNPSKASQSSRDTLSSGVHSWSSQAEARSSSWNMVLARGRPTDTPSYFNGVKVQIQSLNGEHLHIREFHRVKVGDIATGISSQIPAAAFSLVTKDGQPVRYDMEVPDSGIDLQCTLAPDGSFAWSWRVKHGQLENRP

Take `Cc1cc(C#C[C@]2(O)CCN(C)C2=O)cc(-c2nc3c(N)ncnc3s2)c1` [US20240199605, Example 153]: the half-inhibitory concentration (IC50) was determined as 0.8 nM.
